Calls of active or inactive are those of the source. No cut-off for these calls is given here.
Key:
[1] = Cytotoxicity against mouse RAW264.7 cells assessed as cell viability at 2 to 10 uM measured after 24 hrs; type: toxicity, cell-based; conditions: dose 2-10 µM, read-out: Activity
[2] = test system: RAW264.7; assay: Antiinflammatory activity in LPS-induced mouse RAW264.7 cells assessed as inhibition of NO production pretreated for 1 hr followed by LPS addition and measured after 24 hrs by griess reagent based assay; type: functional, cell-based
[3] = test system: RAW264.7; assay: Antiinflammatory activity in LPS-induced mouse RAW264.7 cells assessed as inhibition of NO production at 2 to 10 uM pretreated for 1 hr followed by LPS addition and measured after 24 hrs by griess reagent based assay; type: functional, cell-based; conditions: dose 2-10 µM, time 25.0 hrs
[4] = test system: RAW264.7; assay: Antioxidant activity in H2O2-stimulated mouse RAW264.7 cells assessed as protection against cell damage at 2 to 5 uM pretreated for 30 mins followed by H2O2 stimulation and measured after 4 hrs by MTT assay; type: functional, cell-based; conditions: dose 2-5 µM, time 4.5 hrs
[5] = test system: Mus musculus; assay: Antiinflammatory activity in carrageenan-induced Kunming mouse model of paw edema assessed as paw volume at 30 mg/kg, IG pretreated for 1 hr followed by carrageenan administration and measured after 3 hrs by digital plethysmometer (reference value: 0.365 +/- 0.044 mL); type: functional; conditions: time 4 hrs
[6] = test system: Mus musculus; assay: Antiinflammatory activity in carrageenan-induced Kunming mouse model of paw edema assessed as paw volume at 30 mg/kg, ip pretreated for 1 hr followed by carrageenan administration and measured after 3 hrs by digital plethysmometer (reference value: 0.377 +/- 0.018 mL); type: functional; conditions: time 4 hrs
[7] = test system: Mus musculus; assay: Antiinflammatory activity in carrageenan-induced Kunming mouse model of paw edema assessed as paw volume at 30 mg/kg, ip pretreated for 1 hr followed by carrageenan administration and measured immediately by digital plethysmometer (reference value: 0.116 +/- 0.042 mL); type: functional
[8] = test system: Mus musculus; assay: Antiinflammatory activity in carrageenan-induced Kunming mouse model of paw edema assessed as paw volume at 30 mg/kg, IG pretreated for 1 hr followed by carrageenan administration and measured immediately by digital plethysmometer (reference value: 0.144 +/- 0.026 mL); type: functional
[9] = test system: Mus musculus; assay: Antiinflammatory activity in carrageenan-induced Kunming mouse model of paw edema assessed as edema inhibition at 30 mg/kg, IG pretreated for 1 hr followed by carrageenan administration and measured after 1 hr relative to control; type: functional; conditions: po, time 2 hrs
[10] = test system: Mus musculus; assay: Antiinflammatory activity in carrageenan-induced Kunming mouse model of paw edema assessed as paw volume at 30 mg/kg, ip pretreated for 1 hr followed by carrageenan administration and measured after 1 hr by digital plethysmometer (reference value: 0.395 +/- 0.017 mL); type: functional; conditions: time 2 hrs
[11] = test system: Mus musculus; assay: Antiinflammatory activity in carrageenan-induced Kunming mouse model of paw edema assessed as edema inhibition at 30 mg/kg, ip pretreated for 1 hr followed by carrageenan administration and measured after 1 hr relative to control; type: functional; conditions: time 2 hrs
[12] = test system: Mus musculus; assay: Antiinflammatory activity in carrageenan-induced Kunming mouse model of paw edema assessed as paw volume at 30 mg/kg, ip pretreated for 1 hr followed by carrageenan administration and measured after 5 hrs by digital plethysmometer (reference value: 0.362 +/- 0.016 mL); type: functional; conditions: time 6 hrs
[13] = test system: Mus musculus; assay: Antiinflammatory activity in carrageenan-induced Kunming mouse model of paw edema assessed as paw volume at 30 mg/kg, IG pretreated for 1 hr followed by carrageenan administration and measured after 1 hr by digital plethysmometer (reference value: 0.407 +/- 0.023 mL); type: functional; conditions: time 2 hrs
[14] = test system: Mus musculus; assay: Antiinflammatory activity in carrageenan-induced Kunming mouse model of paw edema assessed as edema inhibition at 30 mg/kg, IG pretreated for 1 hr followed by carrageenan administration and measured after 3 hrs relative to control; type: functional; conditions: po, time 4 hrs
[15] = test system: Mus musculus; assay: Antiinflammatory activity in carrageenan-induced Kunming mouse model of paw edema assessed as paw volume at 30 mg/kg, IG pretreated for 1 hr followed by carrageenan administration and measured after 5 hrs by digital plethysmometer (reference value: 0.353 +/- 0.024 mL); type: functional; conditions: time 6 hrs
[16] = test system: Mus musculus; assay: Antiinflammatory activity in carrageenan-induced Kunming mouse model of paw edema assessed as edema inhibition at 30 mg/kg, IG pretreated for 1 hr followed by carrageenan administration and measured after 5 hrs relative to control; type: functional; conditions: po, time 6 hrs
[17] = test system: Mus musculus; assay: Antiinflammatory activity in carrageenan-induced Kunming mouse model of paw edema assessed as edema inhibition at 30 mg/kg, ip pretreated for 1 hr followed by carrageenan administration and measured after 3 hrs relative to control; type: functional; conditions: time 4 hrs
[18] = test system: Mus musculus; assay: Antiinflammatory activity in carrageenan-induced Kunming mouse model of paw edema assessed as edema inhibition at 30 mg/kg, ip pretreated for 1 hr followed by carrageenan administration and measured after 5 hrs relative to control; type: functional; conditions: time 6 hrs

| Compound | viability at 24 h, 10 µM [1] [%] | Activity [3] | Activity [4] | other results |
| --- | --- | --- | --- | --- |
| COc1ccc2c(c1)CCN2CCCNC(=O)/C=C/c1cc(C(C)(C)C)c(O)c(C(C)(C)C)c1 | > 85 | – | – | – |
| COc1cc(/C=C/C(=O)NCCCN2CCc3ccccc32)ccc1O | > 85 | – | – | – |
| COc1ccc2c(c1)CCN2CCCNC(=O)/C=C/c1ccc(O)c(O)c1 | > 85 | Active | Active | IC50 [2]: 2.07 µM |
| CC(=O)Oc1ccc(/C=C/C(=O)NCCCN2CCc3cc(Cl)ccc32)cc1OC(C)=O | – | – | – | Activity [5]: 0.258 mL; Activity [6]: 0.24 mL; Activity [7]: 0.142 mL; Activity [8]: 0.136 mL; inhibition in vivo at 30 mg/kg [9]: 29.6%; Activity [10]: 0.329 mL; inhibition in vivo at 30 mg/kg [11]: 24.3%; Activity [12]: 0.209 mL; Activity [13]: 0.325 mL; inhibition in vivo at 30 mg/kg [14]: 43.9%; Activity [15]: 0.21 mL; inhibition in vivo at 30 mg/kg [16]: 65.9%; inhibition in vivo at 30 mg/kg [17]: 56.1%; inhibition in vivo at 30 mg/kg [18]: 64% |
| O=C(/C=C/c1ccc(O)cc1)NCCCN1CCc2ccccc21 | > 85 | Active | Active | – |
| COc1cc(/C=C/C(=O)NCCCN2CCc3ccccc32)cc(OC)c1OC | > 85 | Active | inactive | IC50 [2]: 3.9 µM |
| COc1ccc2c(c1)CCN2CCCNC(=O)/C=C/c1ccc(O)c(Cl)c1 | > 85 | Active | Active | – |
| O=C(/C=C/c1ccc(O)c(O)c1)NCCCN1CCc2ccccc21 | > 85 | Active | Active | IC50 [2]: 1.9 µM |
| O=C(/C=C/c1ccc(O)cc1)NCCCN1CCc2cc(Cl)ccc21 | > 85 | Active | Active | IC50 [2]: 4.07 µM |
| COc1cc(/C=C/C(=O)NCCCN2CCc3cc(Cl)ccc32)cc(OC)c1OC | > 85 | Active | inactive | IC50 [2]: 3.54 µM |
| COc1ccc2c(c1)CCN2CCCNC(=O)/C=C/c1cc(OC)c(O)c(OC)c1 | > 85 | – | – | – |
| COc1ccc2c(c1)CCN2CCCNC(=O)/C=C/c1ccc(O)c([N+](=O)[O-])c1 | > 85 | – | – | – |
| O=C(/C=C/c1ccc(O)c([N+](=O)[O-])c1)NCCCN1CCc2ccccc21 | > 85 | – | – | – |
| CC(C)(C)c1cc(/C=C/C(=O)NCCCN2CCc3cc(Cl)ccc32)cc(C(C)(C)C)c1O | > 85 | – | – | – |
| O=C(/C=C/c1ccccc1)NCCCN1CCc2ccccc21 | > 85 | – | – | – |
| COc1cc(/C=C/C(=O)NCCCN2CCc3cc(Cl)ccc32)cc(OC)c1O | > 85 | – | – | – |

| Compound | viability at 24 h, 10 µM [1] [%] | Activity [3] | Activity [4] | other results |
| --- | --- | --- | --- | --- |
| COc1cc(/C=C/C(=O)NCCCN2CCc3ccccc32)cc(OC)c1O | > 85 | – | – | – |
| O=C(/C=C/c1ccccc1)NCCCN1CCc2cc(Cl)ccc21 | > 85 | – | – | – |
| COc1ccc2c(c1)CCN2CCCNC(=O)/C=C/c1cccc(O)c1 | > 85 | inactive | – | – |
| O=C(/C=C/c1cccc(O)c1)NCCCN1CCc2ccccc21 | > 85 | inactive | – | – |
| O=C(/C=C/c1ccc(O)c(Cl)c1)NCCCN1CCc2cc(Cl)ccc21 | > 85 | Active | Active | IC50 [2]: 3.65 µM |
| COc1cc(/C=C/C(=O)NCCCN2CCc3cc(Cl)ccc32)ccc1O | > 85 | – | – | IC50 [2]: 5 µM |
| COc1ccc2c(c1)CCN2CCCNC(=O)/C=C/c1cc(OC)c(OC)c(OC)c1 | > 85 | Active | inactive | IC50 [2]: 4.43 µM |
| COc1ccc2c(c1)CCN2CCCNC(=O)/C=C/c1ccc(O)cc1 | > 85 | Active | Active | – |
| COc1ccc2c(c1)CCN2CCCNC(=O)/C=C/c1ccccc1 | > 85 | – | – | – |
| O=C(/C=C/c1cccc(O)c1)NCCCN1CCc2cc(Cl)ccc21 | > 85 | inactive | – | – |
| O=C(/C=C/c1ccc(O)c([N+](=O)[O-])c1)NCCCN1CCc2cc(Cl)ccc21 | > 85 | – | – | – |
| COc1ccc2c(c1)CCN2CCCNC(=O)/C=C/c1ccc(O)c(OC)c1 | > 85 | – | – | – |
| O=C(/C=C/c1ccc(O)c(Cl)c1)NCCCN1CCc2ccccc21 | > 85 | Active | Active | – |
| O=C(/C=C/c1ccc(O)c(O)c1)OCCc1ccccc1 [CAFFEIC ACID PHENETHYL ESTER] | – | – | Active | Activity [5]: 0.294 mL; IC50 [2]: 0.39 µM; Activity [6]: 0.243 mL; Activity [7]: 0.128 mL; Activity [8]: 0.125 mL; inhibition in vivo at 30 mg/kg [9]: 23.5%; Activity [10]: 0.29 mL; inhibition in vivo at 30 mg/kg [11]: 38.6%; Activity [12]: 0.196 mL; Activity [13]: 0.342 mL; inhibition in vivo at 30 mg/kg [14]: 29.1%; Activity [15]: 0.257 mL; inhibition in vivo at 30 mg/kg [16]: 44.2%; inhibition in vivo at 30 mg/kg [17]: 54.9%; inhibition in vivo at 30 mg/kg [18]: 69.5% |
| CC(C)(C)c1cc(/C=C/C(=O)NCCCN2CCc3ccccc32)cc(C(C)(C)C)c1O | > 85 | – | – | – |
